This note sets out measurements from patent US20110046018A1, “SERS-BASED, SINGLE STEP, REAL-TIME DETECTION OF PROTEIN KINASE AND/OR PHOSPHATASE ACTIVITY” (priority 2007, published 2011).

The target in one data set is Src kinase (Homo sapiens, UniProt P12931). Kind of data set: SERS peptide-conjugated nanoprobe assay of Src kinase inhibition. The class given is biochemical. To be noted: with increasing concentration of inhibitor. The protocol: Src kinase SERS probes were tested and calibrated using purified p60 cellular Src kinase first. The real time peptide SERS spectra were recorded in the reaction with 10 nM Src kinase at 37° C. […] The phosphorylation level was defined as the normalized ratio of peak intensities between 1004 cm^−1 and 1260 cm^−1. […] The real time phosphorylation level in the reactions was characterized with various concentrations of Src kinase. […] The reaction constants of the Src kinase at different concentration can be calculated using the Michaelis-Maten model.
Src kinase, sequence (P12931 whole entry): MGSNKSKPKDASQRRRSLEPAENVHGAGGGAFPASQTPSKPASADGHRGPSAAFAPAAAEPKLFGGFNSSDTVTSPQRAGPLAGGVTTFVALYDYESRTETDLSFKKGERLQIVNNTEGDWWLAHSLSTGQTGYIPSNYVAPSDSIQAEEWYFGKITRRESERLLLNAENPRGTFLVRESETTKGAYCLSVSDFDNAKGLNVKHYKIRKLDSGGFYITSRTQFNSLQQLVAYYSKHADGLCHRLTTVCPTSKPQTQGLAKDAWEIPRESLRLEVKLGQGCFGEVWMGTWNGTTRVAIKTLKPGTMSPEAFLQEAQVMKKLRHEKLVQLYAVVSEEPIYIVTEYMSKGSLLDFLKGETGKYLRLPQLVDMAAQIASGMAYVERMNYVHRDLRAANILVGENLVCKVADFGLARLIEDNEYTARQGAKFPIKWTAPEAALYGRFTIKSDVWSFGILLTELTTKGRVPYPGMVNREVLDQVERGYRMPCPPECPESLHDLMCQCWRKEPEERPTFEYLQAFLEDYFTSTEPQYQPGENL
Different Src kinase inhibitors were tested using the peptide-conjugated nanoprobe assay. The phosphorylation level of the Src kinase with the addition of the inhibitors PP2, PP3 and SU5656 was tested. […] The IC50 concentrations for the three inhibitors were characterized respectively.
A microscopy system with Raman spectrometer was used to acquire Raman scattering spectra from single nanocrescents. […] A 785 nm semiconductor laser was used in our experiments as the excitation source of Raman scattering, and the laser beam was focused by a 40× objective lens on the nanocrescent. The excitation power was measured by a photometer (Newport, Calif.) to be ˜0.8 mW. The Raman scattering light was then collected through the same optical pathway through a long-pass filter and analyzed by the spectrometer.

The subject of data set [1] is substrate peptide for Src kinase (SEQ ID NO:1).
For data set [2], the target named is substrate peptide for Src kinase (SEQ ID NO:1). Kind of data set: cell-based or functional assay.

Entries after “also recorded” stand apart in the source; their conditions may differ.

Consider `CC(C)(C)n1nc(-c2ccc(Cl)cc2)c2c(N)ncnc21` [PP2], for which, at Src kinase, the “phosphorylation level of the Src kinase with the addition of the inhibitors” value (from here on “phosphorylation level … of the inhibitors”) is “decreases significantly”.

Take `Nc1ncnc2c1cnn2-c1ccccc1` [PP3]: the “phosphorylation level … of the inhibitors” value at Src kinase is given as “decreases significantly”.

Consider `CN(C)S(=O)(=O)c1ccc2c(c1)/C(=C/c1cc3c([nH]1)CCCC3)C(=O)N2` [SU5656], for which the “phosphorylation level … of the inhibitors” value on Src kinase is recorded as “decreases significantly”.

Turning to purified p60 cellular Src kinase, in data set [1], the “minimal detectable concentration of Src kinase (SERS phosphorylation assay)” value is listed as “the minimal detectable concentration is above 10 pM”; the “phosphorylation level (normalized ratio of peak intensities between 1004 cm^-1 and 1260 cm^-1, SERS)” value is on record as “increased more than 6-fold after the reactions with 10 nM Src kinase; also recorded: The phosphorylation level saturated at around 7 for high concentration of Src kinase”.

“virus Src protein (in crude lysate of transfected 3T9 mouse fibroblast cells) (enzyme)”: the phosphorylation level (SERS, crude cell lysate) in data set [2] came out at 3 times.
